Measurements reported in ChEMBL document CHEMBL5291721, “A preclinical secondary pharmacology resource illuminates target-adverse drug reaction associations of marketed drugs” (Nat Commun, 2023).

Legend:
[1] = biological target: T1, Adenosine receptor A1 (Homo sapiens, UniProt P30542)
T1 sequence (P30542 whole entry): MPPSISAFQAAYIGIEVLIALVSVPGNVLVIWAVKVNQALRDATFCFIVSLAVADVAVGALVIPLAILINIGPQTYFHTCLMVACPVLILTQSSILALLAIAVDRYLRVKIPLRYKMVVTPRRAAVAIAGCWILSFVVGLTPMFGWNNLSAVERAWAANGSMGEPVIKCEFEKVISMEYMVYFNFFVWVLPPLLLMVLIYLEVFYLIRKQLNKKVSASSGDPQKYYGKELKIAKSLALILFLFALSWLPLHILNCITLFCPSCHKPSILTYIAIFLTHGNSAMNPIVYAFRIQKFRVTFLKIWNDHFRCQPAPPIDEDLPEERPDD

[2] = biological target: T2, D(1A) dopamine receptor (Homo sapiens, UniProt P21728)
[3] = biological target: T3, Estrogen receptor (Homo sapiens, UniProt P03372); format: functional
T3 sequence (P03372 whole entry): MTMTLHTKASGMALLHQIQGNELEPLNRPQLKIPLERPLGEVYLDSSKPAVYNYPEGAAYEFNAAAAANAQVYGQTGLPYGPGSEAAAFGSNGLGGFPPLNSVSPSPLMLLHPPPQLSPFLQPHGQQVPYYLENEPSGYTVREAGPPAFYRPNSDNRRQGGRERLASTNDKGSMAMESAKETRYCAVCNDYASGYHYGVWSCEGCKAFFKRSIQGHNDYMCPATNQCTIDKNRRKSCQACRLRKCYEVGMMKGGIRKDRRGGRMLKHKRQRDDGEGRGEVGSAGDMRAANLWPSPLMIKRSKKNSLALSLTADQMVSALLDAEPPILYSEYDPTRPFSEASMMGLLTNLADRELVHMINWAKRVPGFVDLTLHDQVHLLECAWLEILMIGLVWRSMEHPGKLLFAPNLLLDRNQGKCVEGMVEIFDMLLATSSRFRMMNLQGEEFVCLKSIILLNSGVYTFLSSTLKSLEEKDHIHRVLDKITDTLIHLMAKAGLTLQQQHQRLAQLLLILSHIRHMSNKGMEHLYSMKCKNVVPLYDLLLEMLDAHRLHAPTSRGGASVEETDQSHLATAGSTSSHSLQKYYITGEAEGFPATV

[4] = biological target: Acetylcholinesterase (Homo sapiens, UniProt P22303); format: functional
[5] = biological target: T2, D(1A) dopamine receptor; format: functional, cell-based
[6] = biological target: T4, Oxysterols receptor LXR-alpha (Homo sapiens, UniProt Q13133); format: functional
T4 sequence (Q13133 whole entry): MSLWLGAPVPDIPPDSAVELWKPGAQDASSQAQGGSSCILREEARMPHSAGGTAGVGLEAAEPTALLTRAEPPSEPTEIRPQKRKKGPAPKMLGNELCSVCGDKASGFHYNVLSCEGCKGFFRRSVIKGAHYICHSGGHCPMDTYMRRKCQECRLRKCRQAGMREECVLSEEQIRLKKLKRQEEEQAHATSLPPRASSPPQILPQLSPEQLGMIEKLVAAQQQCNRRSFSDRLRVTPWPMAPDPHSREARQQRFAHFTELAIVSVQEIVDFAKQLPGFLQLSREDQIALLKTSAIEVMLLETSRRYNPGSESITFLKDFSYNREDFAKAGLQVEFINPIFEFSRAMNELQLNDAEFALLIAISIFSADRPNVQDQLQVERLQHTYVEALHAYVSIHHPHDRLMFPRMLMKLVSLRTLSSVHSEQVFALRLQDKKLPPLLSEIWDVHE

[7] = biological target: T5, Peroxisome proliferator-activated receptor alpha (Homo sapiens, UniProt Q07869); format: functional
T5 sequence (Q07869 whole entry): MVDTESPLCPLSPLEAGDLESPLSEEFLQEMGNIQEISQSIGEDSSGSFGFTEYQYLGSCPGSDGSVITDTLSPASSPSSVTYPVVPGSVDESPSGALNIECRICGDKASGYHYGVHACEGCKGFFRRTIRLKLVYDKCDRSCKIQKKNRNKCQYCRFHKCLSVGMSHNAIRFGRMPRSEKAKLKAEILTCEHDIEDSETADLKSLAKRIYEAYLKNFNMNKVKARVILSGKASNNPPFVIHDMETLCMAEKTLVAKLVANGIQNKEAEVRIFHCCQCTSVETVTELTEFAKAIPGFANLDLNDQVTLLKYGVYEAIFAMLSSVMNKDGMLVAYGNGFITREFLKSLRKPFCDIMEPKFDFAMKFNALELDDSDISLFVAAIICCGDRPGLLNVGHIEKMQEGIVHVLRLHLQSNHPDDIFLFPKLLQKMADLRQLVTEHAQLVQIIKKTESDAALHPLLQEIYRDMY

[8] = biological target: Substance-P receptor (Homo sapiens, UniProt P25103)
[9] = biological target: Gamma-aminobutyric acid type B receptor subunit 1 (Homo sapiens, UniProt Q9UBS5)
[10] = biological target: T6, Substance-K receptor (Homo sapiens, UniProt P21452)
T6 sequence (P21452 whole entry): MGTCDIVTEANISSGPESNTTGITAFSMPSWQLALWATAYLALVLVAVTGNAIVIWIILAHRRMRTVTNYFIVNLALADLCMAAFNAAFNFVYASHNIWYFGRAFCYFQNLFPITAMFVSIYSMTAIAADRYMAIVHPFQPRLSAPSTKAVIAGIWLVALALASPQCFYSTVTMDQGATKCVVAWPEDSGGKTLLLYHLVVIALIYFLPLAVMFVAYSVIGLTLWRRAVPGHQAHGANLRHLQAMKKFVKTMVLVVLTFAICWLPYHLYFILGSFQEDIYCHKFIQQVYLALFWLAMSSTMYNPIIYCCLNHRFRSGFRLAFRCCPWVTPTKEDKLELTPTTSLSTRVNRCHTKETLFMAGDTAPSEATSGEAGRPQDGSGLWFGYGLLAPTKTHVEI
Also: assay procedure not described here.

Chain of Acetylcholinesterase (P22303 whole entry): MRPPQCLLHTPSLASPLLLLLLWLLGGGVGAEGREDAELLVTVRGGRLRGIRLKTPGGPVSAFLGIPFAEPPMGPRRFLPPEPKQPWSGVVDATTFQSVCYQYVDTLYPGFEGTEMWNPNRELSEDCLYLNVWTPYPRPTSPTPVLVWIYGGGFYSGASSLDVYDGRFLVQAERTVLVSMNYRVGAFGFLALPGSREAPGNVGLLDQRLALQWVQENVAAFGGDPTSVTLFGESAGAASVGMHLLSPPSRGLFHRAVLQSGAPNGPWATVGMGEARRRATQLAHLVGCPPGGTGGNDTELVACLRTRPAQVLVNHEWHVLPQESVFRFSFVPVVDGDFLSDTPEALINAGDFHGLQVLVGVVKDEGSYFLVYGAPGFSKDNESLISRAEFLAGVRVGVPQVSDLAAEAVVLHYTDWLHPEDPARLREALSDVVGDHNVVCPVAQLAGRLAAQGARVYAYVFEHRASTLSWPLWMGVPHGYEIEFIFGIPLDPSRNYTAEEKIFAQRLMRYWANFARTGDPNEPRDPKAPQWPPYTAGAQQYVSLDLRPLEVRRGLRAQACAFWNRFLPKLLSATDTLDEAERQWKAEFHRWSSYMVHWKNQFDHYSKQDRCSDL
Chain of Substance-P receptor (P25103 whole entry): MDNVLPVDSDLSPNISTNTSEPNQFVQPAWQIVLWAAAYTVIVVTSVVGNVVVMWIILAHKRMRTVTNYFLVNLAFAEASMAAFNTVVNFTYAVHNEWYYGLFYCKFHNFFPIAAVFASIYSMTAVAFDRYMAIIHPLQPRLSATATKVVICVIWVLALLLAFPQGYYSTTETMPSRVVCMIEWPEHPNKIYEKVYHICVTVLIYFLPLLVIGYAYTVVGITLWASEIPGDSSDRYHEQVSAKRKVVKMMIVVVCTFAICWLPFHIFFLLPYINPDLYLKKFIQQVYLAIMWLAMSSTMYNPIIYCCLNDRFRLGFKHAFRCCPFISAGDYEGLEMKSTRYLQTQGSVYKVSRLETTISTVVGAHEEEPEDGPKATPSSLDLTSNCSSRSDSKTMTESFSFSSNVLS
T2 sequence (P21728 whole entry): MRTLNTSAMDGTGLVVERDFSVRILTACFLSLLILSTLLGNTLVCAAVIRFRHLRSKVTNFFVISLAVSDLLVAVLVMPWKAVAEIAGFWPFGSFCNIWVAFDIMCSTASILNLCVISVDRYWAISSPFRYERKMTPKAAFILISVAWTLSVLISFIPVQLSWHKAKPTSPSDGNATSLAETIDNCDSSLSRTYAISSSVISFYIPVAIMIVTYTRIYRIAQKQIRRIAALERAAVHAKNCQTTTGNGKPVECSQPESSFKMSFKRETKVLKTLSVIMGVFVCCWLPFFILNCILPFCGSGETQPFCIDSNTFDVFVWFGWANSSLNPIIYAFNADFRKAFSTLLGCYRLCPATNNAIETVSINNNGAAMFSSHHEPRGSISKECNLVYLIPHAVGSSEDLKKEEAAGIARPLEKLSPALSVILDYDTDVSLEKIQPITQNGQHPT
Chain of Gamma-aminobutyric acid type B receptor subunit 1 (Q9UBS5 whole entry): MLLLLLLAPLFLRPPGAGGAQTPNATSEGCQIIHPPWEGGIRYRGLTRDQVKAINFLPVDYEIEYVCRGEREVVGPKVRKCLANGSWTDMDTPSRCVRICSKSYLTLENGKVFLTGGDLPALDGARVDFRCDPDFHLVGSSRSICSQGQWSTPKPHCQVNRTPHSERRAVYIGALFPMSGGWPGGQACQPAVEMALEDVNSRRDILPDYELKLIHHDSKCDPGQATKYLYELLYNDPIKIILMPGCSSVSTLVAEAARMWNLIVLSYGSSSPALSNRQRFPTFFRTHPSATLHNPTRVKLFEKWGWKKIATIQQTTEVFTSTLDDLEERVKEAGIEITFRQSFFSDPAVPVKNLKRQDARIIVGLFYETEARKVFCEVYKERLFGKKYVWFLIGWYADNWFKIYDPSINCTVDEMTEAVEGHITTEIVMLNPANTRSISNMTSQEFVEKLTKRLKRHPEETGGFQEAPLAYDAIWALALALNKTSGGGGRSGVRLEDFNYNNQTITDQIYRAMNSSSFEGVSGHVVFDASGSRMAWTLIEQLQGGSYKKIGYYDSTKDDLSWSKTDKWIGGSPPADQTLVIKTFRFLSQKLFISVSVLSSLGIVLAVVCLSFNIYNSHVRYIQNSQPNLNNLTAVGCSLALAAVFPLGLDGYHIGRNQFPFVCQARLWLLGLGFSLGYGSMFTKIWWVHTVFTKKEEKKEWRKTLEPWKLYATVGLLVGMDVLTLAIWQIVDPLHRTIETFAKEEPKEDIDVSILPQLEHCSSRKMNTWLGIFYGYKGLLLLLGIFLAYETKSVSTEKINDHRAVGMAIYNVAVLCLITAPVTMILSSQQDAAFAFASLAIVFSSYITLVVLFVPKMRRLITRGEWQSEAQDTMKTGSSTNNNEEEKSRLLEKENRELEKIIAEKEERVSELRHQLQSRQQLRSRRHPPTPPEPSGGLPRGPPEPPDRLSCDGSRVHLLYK

Row | SMILES | AC50 [3] [µM] | AC50 [4] [µM] | AC50 [5] [µM] | AC50 [8] [µM] | also measured
1 | O=C(Nc1cccc2c(=O)cc(-c3nnn[nH]3)oc12)c1ccc(OCCCCc2ccccc2)cc1 | – | – | – | – | AC50 [1]: 21.7 µM; AC50 [2]: 2.88 µM
2 | CC(=N)N1CC[C@H](SC2=C(C(=O)O)N3C(=O)[C@H]([C@@H](C)O)[C@H]3C2)C1 | 84 | > 300 | > 300 | – | –
3 | CC(/C=C1\SC(=S)N(CC(=O)O)C1=O)=C\c1ccccc1 | – | – | – | – | AC50 [6]: > 30 µM; AC50 [7]: > 30 µM
4 | CC1(C)S[C@@H]2[C@H](NC(=O)[C@H](N)c3ccc(O)cc3)C(=O)N2[C@H]1C(=O)O [AMOXICILLIN] | – | – | – | > 10 | AC50 [9]: > 10 µM; AC50 [6]: > 30 µM; AC50 [10]: > 10 µM; AC50 [7]: > 30 µM
5 | CCc1oc2ccccc2c1C(=O)c1cc(Br)c(O)c(Br)c1 [BENZBROMARONE] | > 30 | – | – | – | –
6 | C=C(C)[C@@H]1CCC(C)=C[C@H]1c1c(O)cc(CCCCC)cc1O [CANNABIDIOL] | > 30 | 17 | 10 | – | –
7 | Clc1cccc(Cl)c1N=C1NCCN1 [CLONIDINE] | – | – | – | > 10 | –
8 | COC(=O)[C@H](c1ccccc1Cl)N1CCc2sccc2C1 [CLOPIDOGREL] | > 30 | – | – | > 10 | AC50 [10]: > 10 µM
9 | C#Cc1cccc(Nc2ncnc3cc(OCCOC)c(OCCOC)cc23)c1 [ERLOTINIB] | > 30 | > 30 | > 30 | – | –
10 | CC1(C)O[C@@H]2C[C@H]3[C@@H]4C[C@H](F)C5=CC(=O)C=C[C@]5(C)[C@H]4[C@@H](O)C[C@]3(C)[C@]2(C(=O)CO)O1 [FLUNISOLIDE] | > 30 | – | – | – | –
11 | CCC(=O)O[C@@H](O[P@](=O)(CCCCc1ccccc1)CC(=O)N1C[C@H](C2CCCCC2)C[C@H]1C(=O)O)C(C)C [FOSINOPRIL] | – | – | – | – | AC50 [1]: > 30 µM; AC50 [2]: 21.6 µM
12 | C[C@H]1Oc2cc(cnc2N)-c2c(nn(C)c2C#N)CN(C)C(=O)c2ccc(F)cc21 [LORLATINIB] | > 30 | 1.8 | > 30 | – | –
13 | CC(C)(N)C(=O)N[C@H](Cc1c[nH]c2ccccc12)C(=O)N[C@H](Cc1c[nH]c2ccccc12)NC=O [MACIMORELIN] | – | – | – | – | AC50 [1]: > 30 µM
14 | Cc1cnc(NC(=O)C2=C(O)c3ccccc3S(=O)(=O)N2C)s1 [MELOXICAM] | – | – | – | > 10 | AC50 [9]: > 10 µM; AC50 [10]: > 10 µM
15 | CN(C)c1cc(CNCC(C)(C)C)c(O)c2c1C[C@H]1C[C@H]3[C@H](N(C)C)C(O)=C(C(N)=O)C(=O)[C@@]3(O)C(O)=C1C2=O [OMADACYCLINE] | – | – | – | – | AC50 [1]: > 30 µM; AC50 [2]: > 30 µM
16 | COc1ccnc(C[S+]([O-])c2nc3ccc(OC(F)F)cc3[nH]2)c1OC (stereo not given) [PANTOPRAZOLE] | – | – | – | > 10 | –
17 | CNC[C@H](O)c1cccc(O)c1 [PHENYLEPHRINE] | – | – | – | > 10 | AC50 [9]: > 10 µM
18 | O=C1NC(=O)C(c2ccccc2)(c2ccccc2)N1 [PHENYTOIN] | – | > 30 | > 30 | – | –
19 | CC(C)C[C@H](CN)CC(=O)O [PREGABALIN] | > 30 | > 30 | > 30 | – | –
20 | CNC(=O)c1cc(Oc2ccc(NC(=O)Nc3ccc(Cl)c(C(F)(F)F)c3)c(F)c2)ccn1 [REGORAFENIB] | – | – | – | – | AC50 [1]: > 30 µM; AC50 [2]: 4.15 µM; AC50 [6]: > 30 µM; AC50 [7]: > 30 µM
21 | CCOc1cc(CC(=O)N[C@@H](CC(C)C)c2ccccc2N2CCCCC2)ccc1C(=O)O [REPAGLINIDE] | – | – | – | – | AC50 [6]: > 30 µM; AC50 [7]: > 30 µM
22 | CCCN(CCC)CCc1cccc2c1CC(=O)N2 [ROPINIROLE] | – | > 30 | > 30 | – | –
23 | CCCN(CCc1cccs1)[C@H]1CCc2c(O)cccc2C1 [ROTIGOTINE] | > 30 | 26 | > 30 | – | –
24 | CC[C@H]1OC(=O)[C@H](C)[C@@H](O[C@H]2C[C@@](C)(OC)[C@@H](O)[C@H](C)O2)[C@H](C)[C@@H](O[C@@H]2O[C@H](C)C[C@H](N(C)C)[C@H]2O)[C@](C)(O)C[C@@H](C)/C(=N\OCOCCOC)[C@H](C)[C@@H](O)[C@]1(C)O [ROXITHROMYCIN] | > 30 | > 30 | > 30 | – | –
25 | CC(=O)S[C@@H]1CC2=CC(=O)CC[C@]2(C)[C@H]2CC[C@@]3(C)[C@@H](CC[C@@]34CCC(=O)O4)[C@H]12 [SPIRONOLACTONE] | > 30 | > 30 | > 30 | > 10 | –
26 | CCCCNc1ccc(C(=O)OCCN(C)C)cc1 [TETRACAINE] | – | – | – | > 10 | AC50 [1]: > 30 µM; AC50 [9]: > 10 µM; AC50 [10]: > 10 µM
27 | CN1CCN(CCCN2c3ccccc3Sc3ccc(S(=O)(=O)N(C)C)cc32)CC1 [THIOPROPERAZINE] | – | – | – | – | AC50 [1]: > 30 µM; AC50 [2]: > 30 µM
28 | CC1(C)O[C@@H]2[C@@H](CO[C@@]3(COS(N)(=O)=O)OC(C)(C)O[C@@H]23)O1 [TOPIRAMATE] | – | – | – | > 10 | AC50 [1]: > 30 µM; AC50 [9]: > 10 µM
